According to US20230041138A1, “TREATMENT OF HIS HYPORESPONDERS” (NewAmsterdam Pharma B.V. (Dutch Registration No. 55971946), priority 2021, published 2023):

Test: Phase 2 study: PK follow-up, plasma obicetrapib concentrations after end of treatment
Assay type: in vivo, human
Experimental: The screening period for this study took up to 2-weeks. Afterwards patients were randomized to placebo, 5 mg obicetrapib or 10 mg obicetrapib for an 8-week treatment period. After the treatment period, patients continued for a 4-week safety follow-up and a 15-week PK follow-up.
The primary outcome measure was LDL-C (percent change). Secondary outcome measures included ApoB, Non-HDL-C and HDL-C (percent change). The Intent-to-Treat (ITT) Population included all participants randomized into the study. The Modified ITT (mITT) Population included all participants in the ITT Population who receive at least 1 dose of any study drug and have a baseline value for the LDL-C assessment. The Safety Population included all participants who receive at least 1 dose of any study drug. The mITT Population was the primary population for the efficacy analyses. The primary efficacy analysis of the percent change in LDL-C was performed using a mixed model for repeated measures (MMRM) approach. In order to maintain the overall Type I error rate, the secondary efficacy endpoints were tested sequentially at the 0.05 significance level according to the pre-specified order of hierarchy. All safety endpoints were summarized descriptively. No statistical inference was applied to the safety endpoints. Plasma obicetrapib concentrations were summarized with descriptive statistics based on the […].

For CCOC(=O)N1c2ccc(C(F)(F)F)cc2[C@@H](N(Cc2cc(C(F)(F)F)cc(C(F)(F)F)c2)c2ncc(OCCCC(=O)O)cn2)C[C@H]1CC [Obicetrapib, (2R,4S)-4-{[3,5-bis(trifluoromethyl)benzyl]-[5-(3-carboxypropoxy)pyrimidin-2-yl]amino}-2-ethyl-6-trifluoromethyl-3,4-dihydro-2H-quinoline-1-carboxylic acid ethyl ester], the “Plasma obicetrapib levels, median decrease after end-of-treatment” value (5 mg group, 4 weeks after end-of-treatment) was 92%, the “Plasma obicetrapib levels, median decrease after end-of-treatment” value (5 mg group, 8 weeks after end-of-treatment) was 98% and the “Plasma obicetrapib levels, median decrease after end-of-treatment” value (5 mg group, 15 weeks after end-of-treatment) was 99%. The “Plasma obicetrapib levels, median decrease after end-of-treatment” value (10 mg group, 4 weeks after end-of-treatment) was 93%, the “Plasma obicetrapib levels, median decrease after end-of-treatment” value (10 mg group, 8 weeks after end-of-treatment) was 98% and the “Plasma obicetrapib levels, median decrease after end-of-treatment” value (10 mg group, 15 weeks after end-of-treatment) was 99%.
